Laboratory results published in ChEMBL document CHEMBL2380196, “New anticancer active and selective phenylene-bisbenzothiazoles: synthesis, antiproliferative evaluation and DNA binding” (Eur J Med Chem, 2013).
Calls of active or inactive are those of the source. No cut-off for these calls is given here.

What was measured:
[1] = system: SK-BR-3; assay: Cell cycle arrest in human SKBR3 cells assessed as accumulation in G2/M phase at 10 uM after 24 hrs using propidium iodide staining by flow cytometry relative to control; type: functional
[2] = system: HeLa; assay: Cell cycle arrest in human HeLa cells assessed as accumulation in G2/M phase at 10 uM after 48 hrs using propidium iodide staining by flow cytometry relative to control; type: functional
[3] = system: MCF7; assay: Antiproliferative activity against human MCF7 cells after 72 hrs by MTT assay; type: functional, cell-based; details: MCF7, 72 h; for CC50: read-out: LC50 (the source's name)
[4] = system: DNA; assay: Binding affinity to calf thymus DNA assessed as change in melting temperature at 0.25 drug/DNA ratio by spectrophotometer analysis; type: nucleic-acid assay; details: Bos taurus
[5] = system: SK-BR-3; assay: Cell cycle arrest in human SKBR3 cells assessed as accumulation in sub-G1 phase at 5 uM after 24 hrs using propidium iodide staining by flow cytometry relative to control; type: functional
[6] = system: SK-BR-3; assay: Antiproliferative activity against human SKBR3 cells after 72 hrs by MTT assay; type: functional, cell-based; details: SK-BR-3, 72 h; for CC50: read-out: LC50 (the source's name)
[7] = system: HeLa; assay: Cell cycle arrest in human HeLa cells assessed as accumulation in G2/M phase at 5 uM after 24 hrs using propidium iodide staining by flow cytometry relative to control; type: functional
[8] = system: MIA PaCa-2; assay: Induction of apoptosis in human MIAPaCa2 cells at 10 uM after 48 hrs using propidium iodide/Annexin-V staining by flow cytometry relative to control; type: functional
[9] = system: MIA PaCa-2; assay: Cell cycle arrest in human MIAPaCa2 cells assessed as accumulation in sub-G1 phase at 10 uM after 48 hrs using propidium iodide staining by flow cytometry relative to control; type: functional
[10] = system: MIA PaCa-2; assay: Cell cycle arrest in human MIAPaCa2 cells assessed as accumulation in G2/M phase at 5 uM after 24 hrs using propidium iodide staining by flow cytometry relative to control; type: functional
[11] = system: SK-BR-3; assay: Cell cycle arrest in human SKBR3 cells assessed as accumulation in S phase at 5 uM after 48 hrs using propidium iodide staining by flow cytometry relative to control; type: functional
[12] = system: HeLa; assay: Cell cycle arrest in human HeLa cells assessed as accumulation in sub-G1 phase at 10 uM after 24 hrs using propidium iodide staining by flow cytometry relative to control; type: functional
[13] = system: HeLa; assay: Cell cycle arrest in human HeLa cells assessed as accumulation in S phase at 10 uM after 24 hrs using propidium iodide staining by flow cytometry relative to control; type: functional
[14] = system: MIA PaCa-2; assay: Cell cycle arrest in human MIAPaCa2 cells assessed as accumulation in S phase at 5 uM after 24 hrs using propidium iodide staining by flow cytometry relative to control; type: functional
[15] = system: SK-BR-3; assay: Cell cycle arrest in human SKBR3 cells assessed as accumulation in sub-G1 phase at 10 uM after 24 hrs using propidium iodide staining by flow cytometry relative to control; type: functional
[16] = system: SK-BR-3; assay: Cell cycle arrest in human SKBR3 cells assessed as accumulation in S phase at 5 uM after 24 hrs using propidium iodide staining by flow cytometry relative to control; type: functional
[17] = system: SK-BR-3; assay: Cell cycle arrest in human SKBR3 cells assessed as accumulation in G1 phase at 10 uM after 48 hrs using propidium iodide staining by flow cytometry relative to control; type: functional
[18] = system: SK-BR-3; assay: Cell cycle arrest in human SKBR3 cells assessed as accumulation in G1 phase at 10 uM after 24 hrs using propidium iodide staining by flow cytometry relative to control; type: functional
[19] = system: HeLa; assay: Cell cycle arrest in human HeLa cells assessed as accumulation in S phase at 10 uM after 48 hrs using propidium iodide staining by flow cytometry relative to control; type: functional
[20] = system: MIA PaCa-2; assay: Cell cycle arrest in human MIAPaCa2 cells assessed as accumulation in sub-G1 phase at 5 uM after 24 hrs using propidium iodide staining by flow cytometry relative to control; type: functional
[21] = system: DNA; assay: Binding affinity to calf thymus DNA assessed as hypochromic effect at 20 uM by UV/Vis spectra analysis; type: nucleic-acid assay; details: Bos taurus
[22] = system: SW-620; assay: Cell cycle arrest in human SW620 cells assessed as accumulation in G1 phase at 10 uM after 24 hrs using propidium iodide staining by flow cytometry relative to control; type: functional
[23] = system: SW-620; assay: Cell cycle arrest in human SW620 cells assessed as accumulation in sub-G1 phase at 10 uM after 24 hrs using propidium iodide staining by flow cytometry relative to control; type: functional
[24] = system: SW-620; assay: Cell cycle arrest in human SW620 cells assessed as accumulation in S phase at 10 uM after 24 hrs using propidium iodide staining by flow cytometry relative to control; type: functional
[25] = system: SW-620; assay: Cell cycle arrest in human SW620 cells assessed as accumulation in G2/M phase at 5 uM after 48 hrs using propidium iodide staining by flow cytometry relative to control; type: functional
[26] = system: HeLa; assay: Cell cycle arrest in human HeLa cells assessed as accumulation in S phase after 24 hrs using propidium iodide staining by flow cytometry; type: functional, cell-based
[27] = system: SW-620; assay: Cell cycle arrest in human SW620 cells assessed as accumulation in S phase at 5 uM after 24 hrs using propidium iodide staining by flow cytometry relative to control; type: functional
[28] = target: T1, DNA topoisomerase 1 (Homo sapiens) (UniProt P11387); assay: Inhibition of human topoisomerase 1-mediated supercoiled pUC19 DNA relaxation assessed as formation of open circle form after 45 mins using ethidium bromide staining by agarose gel electrophoresis
T1 sequence (whole entry): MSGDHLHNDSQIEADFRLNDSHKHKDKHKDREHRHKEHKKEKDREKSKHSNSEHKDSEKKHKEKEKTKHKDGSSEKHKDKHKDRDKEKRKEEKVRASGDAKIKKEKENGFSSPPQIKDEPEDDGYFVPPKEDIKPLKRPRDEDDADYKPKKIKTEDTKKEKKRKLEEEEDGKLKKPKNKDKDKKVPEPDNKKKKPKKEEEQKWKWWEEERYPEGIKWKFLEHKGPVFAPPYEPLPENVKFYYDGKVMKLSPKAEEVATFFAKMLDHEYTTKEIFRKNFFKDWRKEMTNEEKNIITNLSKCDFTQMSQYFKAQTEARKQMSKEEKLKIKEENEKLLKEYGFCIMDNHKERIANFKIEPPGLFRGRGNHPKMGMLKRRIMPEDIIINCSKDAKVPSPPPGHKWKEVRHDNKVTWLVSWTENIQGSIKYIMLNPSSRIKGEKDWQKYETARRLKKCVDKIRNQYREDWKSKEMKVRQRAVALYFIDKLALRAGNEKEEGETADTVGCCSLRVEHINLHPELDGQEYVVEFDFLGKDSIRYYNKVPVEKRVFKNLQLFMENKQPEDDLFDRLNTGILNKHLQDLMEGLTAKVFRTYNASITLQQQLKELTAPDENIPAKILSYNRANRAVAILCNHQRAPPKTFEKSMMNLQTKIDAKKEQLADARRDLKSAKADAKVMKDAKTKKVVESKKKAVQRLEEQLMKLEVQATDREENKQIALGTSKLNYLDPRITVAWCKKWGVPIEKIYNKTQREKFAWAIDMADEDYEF

[29] = system: SW-620; assay: Cell cycle arrest in human SW620 cells assessed as accumulation in sub-G1 phase at 10 uM after 48 hrs using propidium iodide staining by flow cytometry relative to control; type: functional
[30] = system: SW-620; assay: Cell cycle arrest in human SW620 cells assessed as accumulation in G2/M phase at 5 uM after 24 hrs using propidium iodide staining by flow cytometry relative to control; type: functional

SMILES | Activity [1] | Activity [2] | IC50 [3] | CC50 [3] | ΔTm [4] | Activity [5] | IC50 [6] | CC50 [6] | Activity [7] | Activity [9] | Activity [10] | Activity [11] | Activity [12] | Activity [13] | Activity [14] | Activity [15] | Activity [16] | Activity [17] | Activity [18] | Activity [19] | also measured
Cl.Cl.c1cc2nc(-c3ccc(-c4nc5ccc(C6=NCCN6)cc5s4)cc3)sc2cc1C1=NCCN1 | 14.5% | 14.5% | 3.07 µM | > 100 µM | 3.9 °C | 15.8% | 1.18 µM | 8.07 µM | 13.4% | 53.9% | 5.8% | 32.6% | 15.5% | 58.7% | 55% | 31.6% | 33.5% | 41.3% | 50.9% | 44% | Activity [8]: 4%; Activity [20]: 34.4%; Activity [21]: Active
Cl.Cl.c1cc(-c2nc3ccc(C4=NCCN4)cc3s2)cc(-c2nc3ccc(C4=NCCN4)cc3s2)c1 | 17.8% | 13.2% | > 100 µM | 5.3 µM | 12.8 °C | 33.3% | 0.04 µM | 0.87 µM | 24% | 9.1% | 10.9% | 44% | 12.5% | 66.3% | 33.6% | 23.1% | 58.9% | 22.1% | 28.7% | 71.4% | Activity [22]: 29.9%; Activity [23]: 45.3%; Activity [24]: 65.6%; Activity [25]: 14.7%; Activity [26]: Dose-dependent effect; Activity [27]: 46.6%; Activity [20]: 17.7%; inhibition [28]: Active; Activity [29]: 13.6%; Activity [30]: 15.5%; Activity [21]: Active
